In patent US8546563B2, “Compounds which modulate the CB2 receptor” (Boehringer Ingelheim International GmbH, priority 2007, dated 2013):

Molecular target: T1, human CB2R (Homo sapiens, UniProt P34972)
T1 construct: host or cells: CHO cells
Test: CB2R mediated modulation of cAMP synthesis
Type: cell-based
Settings: CHO cells expressing human CB2R; inhibition of forskolin-stimulated cAMP synthesis (agonist); read-out: CB2 EC50
Protocol: B. CB2R Mediated Modulation of cAMP Synthesis:
Compounds of the invention were evaluated for their CB2 agonist or inverse agonistic activity in accordance with the following experimental method.
CHO cells expressing human CB2R (Euroscreen) were plated at a density of 5000 cells per well in 384 well plates and incubated overnight at 37° C. After removing the media, the cells were treated with test compounds diluted in stimulation buffer containing 1 mM IBMX, 0.25% BSA and 10 uM Forskolin. The assay was incubated for 30 minutes at 37° C. Cells were lysed and the cAMP concentration was measured using DiscoverX-XS cAMP kit, following the manufacturer's protocol. In this setting, agonists will decrease forskolin induced production of cAMP while inverse agonists will further increase forskolin induced production of cAMP. EC50 of agonists were calculated as follows. The maximal amount of cAMP produced by forskolin compared to the level of cAMP inhibited by 1 uM CP55940 is defined as 100%. The EC50 value of each test compound was determined as the concentration at which 50% of the forskolin-stimulated cAMP synthesis was inhibited. Data was analyzed using a four-parameter logistic model. (Model 205 of XLfit 4.0).

T1 sequence (P34972 whole entry): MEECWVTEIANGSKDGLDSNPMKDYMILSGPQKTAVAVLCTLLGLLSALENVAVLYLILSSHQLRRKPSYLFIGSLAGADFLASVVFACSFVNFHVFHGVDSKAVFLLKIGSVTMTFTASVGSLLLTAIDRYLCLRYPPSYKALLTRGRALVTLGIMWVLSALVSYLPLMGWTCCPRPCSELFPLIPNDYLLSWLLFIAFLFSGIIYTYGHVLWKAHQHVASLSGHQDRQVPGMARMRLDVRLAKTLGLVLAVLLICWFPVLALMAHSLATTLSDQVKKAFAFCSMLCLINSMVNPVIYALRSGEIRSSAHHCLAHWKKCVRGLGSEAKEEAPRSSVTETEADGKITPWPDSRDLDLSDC

| Compound | EC50 [nM] |
| --- | --- |
| CC(C)(C(=O)Nc1nnc(-c2ccccc2)[nH]1)S(=O)(=O)N1CCOCC1 | 86 |
| CC(C)(C(=O)Nc1nnc(-c2ccccc2)[nH]1)S(=O)(=O)N1CCC(F)C1 (stereo not shown) | 5.1 |
| CC(C)(C(=O)Nc1nnc(-c2ccccc2)[nH]1)S(=O)(=O)N1CCC1 | 11 |
| CC(C)(C(=O)Nc1nc2c(s1)CCCC2)S(=O)(=O)N1CCC1 | 62 |
| CC(C)(C(=O)Nc1nsc(-c2ccccc2)n1)S(=O)(=O)N1CCC1 | 72 |
| CC(C)(C(=O)Nc1ccc(C(F)(F)F)cc1F)S(=O)(=O)N1CCC1 | 86 |
| CC(C)(C(=O)Nc1nc(-c2ccc(Cl)cc2)cs1)S(=O)(=O)N1CCC1 | 8.9 |
| Cc1sc(NC(=O)C(C)(C)S(=O)(=O)N2CCC2)nc1-c1ccc(F)cc1 | 17 |
| CC(C)(C(=O)Nc1nc(-c2ccc(F)cc2)cs1)S(=O)(=O)N1CCC1 | 19 |
| Cc1nc(NC(=O)C(C)(C)S(=O)(=O)N2CCC2)sc1C(C)(C)C | 2.5 |
| CC(C)(C)c1cc(NC(=O)C(C)(C)S(=O)(=O)N2CCC(F)C2)sn1 (stereo not shown) | 83 |
| Cn1nc(C(C)(C)C)cc1NC(=O)C(C)(C)S(=O)(=O)N1CCOCC1 | 79 |
| CC(C)(C)c1cc(NC(=O)C(C)(C)S(=O)(=O)N2CC(F)(F)C2)no1 | 5 |
| CC1CCCCN1S(=O)(=O)C(C)(C)C(=O)Nc1cc(C(C)(C)C)on1 (stereo not shown) | 97 |
| CC(C)(C)c1cc(NC(=O)C(C)(C)S(=O)(=O)N2CC[C@@H](F)C2)no1 | 5.7 |
| CC(C)(C)c1cc(NC(=O)C(C)(C)S(=O)(=O)N2CCC2)no1 [Example 5, 2-(Azetidine-1-sulfonyl)-N-(5-tert-butyl-isoxazol-3-yl)-2-methyl-propionamide] | 3.6 |
| CC(C)(C)c1cc(NC(=O)C(C)(C)S(=O)(=O)N2CCCC2)no1 [Example 6, N-(5-tert-Butyl-isoxazol-3-yl)-2-methyl-2-(pyrrolidine-1-sulfonyl)-propionamide] | 1.3 |
| CC(C)(C)c1cc(NC(=O)C(C)(C)S(=O)(=O)NC2CC2)no1 [Example 7, N-(5-tert-Butyl-isoxazol-3-yl)-2-cyclopropylsulfamoyl-2-methyl-propionamide] | 58 |
| CC(C)(C)c1cc(NC(=O)C(C)(C)S(=O)(=O)NC2CCCCC2)no1 [Example 8, N-(5-tert-Butyl-isoxazol-3-yl)-2-cyclohexylsulfamoyl-2-methyl-propionamide] | 2.4 |
| CC(C)(C)c1cc(NC(=O)C(C)(C)S(=O)(=O)N2CCCCC2)no1 [Example 9, N-(5-tert-Butyl-isoxazol-3-yl)-2-methyl-2-(piperidine-1-sulfonyl)-propionamide] | 6.5 |

| Compound | EC50 [nM] |
| --- | --- |
| CC(C)(C)c1cc(NC(=O)C(C)(C)S(=O)(=O)NC2CCCC2)no1 [Example 10, N-(5-tert-Butyl-isoxazol-3-yl)-2-cyclopentylsulfamoyl-2-methyl-propionamide] | 13 |
| CCCCNS(=O)(=O)C(C)(C)C(=O)Nc1cc(C(C)(C)C)on1 [Example 24, N-(5-tert-Butyl-isoxazol-3-yl)-2-butylsulfamoyl-2-methyl-propionamide] | 10 |
| CCCCNS(=O)(=O)C(C)(C)C(=O)Nc1nc(C(C)(C)C)cs1 [Example 25, 2-Butylsulfamoyl-N-(4-tert-butyl-thiazol-2-yl)-2-methyl-propionamide] | 32 |
| CCCNS(=O)(=O)C(C)(C)C(=O)Nc1cc(C(C)(C)C)on1 [Example 35, N-(5-tert-Butyl-isoxazol-3-yl)-2-methyl-2-propylsulfamoyl-propionamide] | 33 |
| CC(C)(C)c1cc(NC(=O)C(C)(C)S(=O)(=O)N2CCOCC2)no1 [Example 40] | 47 |
| CCCCN(C)S(=O)(=O)C(C)(C)C(=O)Nc1cc(C(C)(C)C)on1 [Example 41, N-(5-tert-Butyl-isoxazol-3-yl)-2-(butyl-methyl-sulfamoyl)-2-methyl-propionamide] | 1.7 |
| CC(C)(C)c1csc(NC(=O)C(C)(C)S(=O)(=O)N2CCC2)n1 [Example 44, 2-(Azetidine-1-sulfonyl)-N-(4-tert-butyl-thiazol-2-yl)-2-methyl-propionamide] | 14 |
| CC(C)(C)c1cc(NC(=O)C(C)(C)S(=O)(=O)N2CCC2)on1 [Example 47, 2-(Azetidine-1-sulfonyl)-N-(3-tert-butyl-isoxazol-5-yl)-2-methyl-propionamide] | 20 |
| CC(C)(C(=O)Nc1nc2ccccc2s1)S(=O)(=O)N1CCC1 [Example 50, 2-(Azetidine-1-sulfonyl)-N-benzothiazol-2-yl-2-methyl-propionamide] | 26 |
| CC(C)(C(=O)Nc1nc(-c2cccs2)cs1)S(=O)(=O)N1CCC1 [Example 53, 2-(Azetidine-1-sulfonyl)-2-methyl-N-(4-thiophen-2-yl-thiazol-2-yl)-propionamide] | 41 |
| CCc1sc(NC(=O)C(C)(C)S(=O)(=O)N2CCC2)nc1-c1ccccc1 [Example 54, 2-(Azetidine-1-sulfonyl)-N-(5-ethyl-4-phenyl-thiazol-2-yl)-2-methyl-propionamide] | 6.6 |
| CC(C)(C(=O)Nc1nc(C2CCCCC2)cs1)S(=O)(=O)N1CCC1 [Example 55, 2-(Azetidine-1-sulfonyl)-N-(4-cyclohexyl-thiazol-2-yl)-2-methyl-propionamide] | 22 |
| CC(C)(C)c1ccc(NC(=O)C(C)(C)S(=O)(=O)N2CCC2)cc1 [Example 58, 2-(Azetidine-1-sulfonyl)-N-(4-tert-butyl-phenyl)-2-methyl-propionamide] | 3.1 |
| CC(C)(C)c1cccc(NC(=O)C(C)(C)S(=O)(=O)N2CCC2)c1 [Example 65, 2-(Azetidine-1-sulfonyl)-N-(3-tert-butyl-phenyl)-2-methyl-propionamide] | 17 |
| CCC(C)c1cc(NC(=O)C(C)(C)S(=O)(=O)N2CCC2)on1 (stereo not shown) [Example 73, 2-(Azetidine-1-sulfonyl)-N-(3-sec-butyl-isoxazol-5-yl)-2-methyl-propionamide] | 14 |
| CC(C)c1cc(NC(=O)C(C)(C)S(=O)(=O)N2CCC2)on1 [Example 74, 2-(Azetidine-1-sulfonyl)-N-(3-isopropyl-isoxazol-5-yl)-2-methyl-propionamide] | 108 |
| CC(C)(C)c1cc(NC(=O)C(C)(C)S(=O)(=O)N2CCC2)ccn1 [Example 82, 2-(Azetidine-1-sulfonyl)-N-(2-tert-butyl-pyridin-4-yl)-2-methyl-propionamide] | 37 |
| CC(C)(C)c1cc(NC(=O)C(C)(C)S(=O)(=O)N2CCOCC2)on1 [Example 85, N-(3-tert-Butyl-isoxazol-5-yl)-2-methyl-2-(morpholine-4-sulfonyl)-propionamide] | 15 |
| CN(c1ccccc1)S(=O)(=O)C(C)(C)C(=O)Nc1nc(C(C)(C)C)cs1 [N-(4-tert-Butyl-thiazol-2-yl)-2-methyl-2-(methyl-phenyl-sulfamoyl)-propionamide] | 42 |
| CC(C)(C)c1cc(NC(=O)C(C)(C)S(=O)(=O)N2CCC(F)(F)CC2)no1 [N-(5-tert-Butyl-isoxazol-3-yl)-2-(4,4-difluoro-piperidine-1-sulfonyl)-2-methyl-propionamide] | 2.5 |
